# Measurements from US20080319001A1, “Cancer Treatment Using Specific 3,6,9-Substituted Acridines” (priority 2005, published 2008).
# Assays:
# [1] = test system: A549-derived xenografts; assay: A549 xenograft combination study; assay type: in vivo, mouse; conditions: single agent (AS1410 1 mg/kg or cisplatin 6 mg/kg), after approximately 60 days
# Protocol: AS1410 was reconstituted in 0.9% saline B.P. to the required final concentration (0.331 and 0.0993) mg/ml of AS1410 succinate salt for intravenous administration).
# The xenografts were prepared from the lung carcinoma A549 (ATCC Number CCL-185). Cells were grown in accordance with standard operating procedures and established methodology for this cell line to provide 5×10^6 cells per mouse.
# A549-derived xenografts were established in 50 female nu/nu MF1 mice respectively by subcutaneous injection into the right flank of each mouse (5×10^6 cells in 100 μl phosphate buffered saline).
# Animals were checked regularly until visible tumours appeared. Tumours were then measured in accordance with the relevant SOP regularly and tumour volume calculated using the formula: […]
# Once the tumours were established, the mice were allocated into groups of 9 mice using a randomization procedure based on stratified xenograft volume.
# Day 0 is defined as the day on which the average tumour volume is between 0.04 to 0.1 cm^3. Relative tumour volume on Day 0 is defined as 1.
# Each mouse was observed and tumours measured until the xenografts tripled (3V0) in volume compared with volume on the day of treatment (V0). The elapsed period is the volume tripling time (VTT).
# AS1410 was given by slow bolus intravenous injection. For AS1410 a dose volume 5 μl/g bodyweight was used. Control mice were untreated. […]
# [2] = test system: human telomerase; conditions: Read et al. 2001; Harrison et al. 2003; Schultes et al. 2004; cited from earlier work
smiles,measurement,setting,value
"N.N.[Cl][Pt][Cl] [cisplatin, cis-diaminedichloroplatinum(II)]",relative tumour volume,[1],about 5
Nc1ccc(Nc2c3ccc(NC(=O)CCN4CCCC4)cc3nc3cc(NC(=O)CCN4CCCC4)ccc23)cc1 [BR-ACO-20],in vitro inhibitory activity against human telomerase,[2],potent in vitro inhibitory activity
